Publication PMC10786919, “Design-rules for stapled peptides with in vivo activity and their application to Mdm2/X antagonists” (Nature Communications, 2024)
Values after ≈ are worked out from the molar mass of the structure shown. Where two headings read alike, the source gives them in different places. Positions of bridges follow the written chain, without caps; N, C: chain ends. Non-standard residues stand in square brackets, D forms with d. Residues, ends and D or L forms follow the SMILES beside them. Lys(N3) = [N-]=[N+]=NCCCC[C@H](N)C(=O)O; R8 = C=CCCCCCC[C@@](C)(N)C(=O)O; Cba = N[C@@H](CC1CCC1)C(=O)O; S5 = C=CCCC[C@](C)(N)C(=O)O; βAla = NCCC(=O)O

Legend:
[1] = Lactate dehydrogenase (LDH) release assay; assay type: cell-based
Method in brief: (§1)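 Geometric means of at least three independent biological runs are given for LDH release measured in HCT116 cells stably expressing a p53-driven β-lactamase reporter. Plating density was 8000 cells/well; DMSO in wells was 0.5%.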

HCT116 cells = experiment: Lactate dehydrogenase (LDH) release assay; assay type: cell-based
Method in brief: as §1

[2] = Solubility assay (kinetic solubility, PBS pH 7); assay type: physicochemical; conditions: for solubility kinetic: read-out: Solubility
Method in brief: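 Next, measure peak areas of sample and standard. Finally, multiply their ratio by the standard concentration to obtain solubility (µM).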

[3] = Experimental LogD (partition coefficient); conditions: not stated, Partition Coeff LogD
in vitro = experiment: in vitro
Method in brief: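 Azido-peptide permeability was read as loss of NanoBRET signal (donor 450 nm, acceptor 610 nm) after adding NanoBret618-azide at 10 μM final.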

[4] = 0% FBS 4Hr, read-out: LDH: Cytotoxicity assay EC50
[5] = pH 7, aqueous buffer, kinetic from dmso stock, pH 7, PBS
[6] = 10% FBS 4Hr, read-out: LDH: Cytotoxicity assay EC50

Structure (SMILES) | EC50 [1, 4] | LDH: Cytotoxicity assay % Effect (HCT116 cells; 0% FBS 4Hr) | LDH: Cytotoxicity assay % Effect (HCT116 cells; 0% FBS 16Hr) | solubility kinetic [2, 5] | EPSA (physchem) | logD [3] | cell entry EC50 (in vitro; Nanoclick permeability assay EC50) | EC50 ([1]; LDH: Cytotoxicity assay EC50) | LDH: Cytotoxicity assay % Effect (HCT116 cells) | Solubility ([2]; pH 7, PBS) | EC50 [1, 6] | LDH: Cytotoxicity assay % Effect (HCT116 cells; 10% FBS 4Hr) | Solubility [2] | solubility kinetic [2] | cell entry EC50 (in vitro)
CC(=O)N[C@@H](CCCCN=[N+]=[N-])C(=O)NCCC(=O)NC(C)(C)C(=O)N[C@H](C(=O)N[C@@H](Cc1ccccc1)C(=O)N[C@]1(C)CCCCCCC=CCCC[C@@](C)(C(=O)N[C@@H](CO)C(=O)N[C@@H](C)C(=O)N[C@@H](C)C(N)=O)NC(=O)[C@H](CC2CCC2)NC(=O)[C@H](CCC(N)=O)NC(=O)[C@H](C)NC(=O)[C@H](Cc2c[nH]c3ccccc23)NC(=O)[C@H](Cc2ccc(O)cc2)NC(=O)[C@H](CCC(=O)O)NC1=O)[C@@H](C)O [MP-168] | > 50 µM | 4.017% | 11.59% | 79.5 µM (≈ 154 µg/mL) | 228 A^2 | 2.81 |  |  |  |  |  |  |  |  | 
CC(=O)N[C@@H](CCCCN=[N+]=[N-])C(=O)NCCC(=O)N[C@@H](CC(C)C)C(=O)N[C@H](C(=O)N[C@@H](Cc1ccccc1)C(=O)N[C@]1(C)CCCCCCC=CCCC[C@@](C)(C(=O)NC(C)(C)C(=O)N[C@@H](C)C(=O)N[C@@H](C)C(N)=O)NC(=O)[C@H](CC2CCC2)NC(=O)[C@H](CCC(N)=O)NC(=O)[C@H](C)NC(=O)[C@H](Cc2c[nH]c3ccccc23)NC(=O)[C@H](Cc2ccc(O)cc2)NC(=O)[C@H](CCC(=O)O)NC1=O)[C@@H](C)O [MP-172] |  |  |  | 140 µM (≈ 276 µg/mL) | 225 A^2 | 3.17 | 0.123 µM |  |  |  |  |  |  |  | 
CC(=O)N[C@@H](CC(C)C)C(=O)N[C@H](C(=O)N[C@@H](Cc1ccccc1)C(=O)N[C@]1(C)CCCCCCC=CCCC[C@@](C)(C(=O)N[C@@H](CO)C(=O)N[C@@H](C)C(=O)N[C@@H](C)C(N)=O)NC(=O)[C@H](CC2CCC2)NC(=O)[C@H](CC(C)C)NC(=O)[C@H](CCC(N)=O)NC(=O)[C@H](Cc2c[nH]c3ccccc23)NC(=O)[C@H](Cc2ccc(O)cc2)NC(=O)[C@H](CCCNC(=N)N)NC1=O)[C@@H](C)O [MP-193] (Ac-LTF[R8]RYWQL[Cba][S5]SAA-NH2; staple 4-11) |  |  |  | 2 µM (≈ 3.63 µg/mL) | 207 A^2 | 3.26 |  | > 50 µM | 58.33% |  |  |  |  |  | 
CC(=O)N[C@@H](CC(C)C)C(=O)N[C@H](C(=O)N[C@@H](Cc1ccccc1)C(=O)N[C@]1(C)CCCCCCC=CCCC[C@@](C)(C(=O)N[C@@H](CO)C(=O)N[C@@H](C)C(=O)N[C@@H](C)C(N)=O)NC(=O)[C@H](CC2CCC2)NC(=O)[C@H](CC(C)C)NC(=O)[C@H](CCCNC(=N)N)NC(=O)[C@H](Cc2c[nH]c3ccccc23)NC(=O)[C@H](Cc2ccc(O)cc2)NC(=O)[C@H](CCC(=O)O)NC1=O)[C@@H](C)O [MP-194] (Ac-LTF[R8]EYWRL[Cba][S5]SAA-NH2; staple 4-11) |  |  |  |  | 210 A^2 | 2.87 |  | > 50 µM | -1.06% | Poorly Behaved |  |  |  |  | 
CC(=O)N[C@@H](CC(C)C)C(=O)N[C@@H](Cc1c[nH]cn1)C(=O)N[C@@H](Cc1ccccc1)C(=O)N[C@]1(C)CCCCCCC=CCCC[C@@](C)(C(=O)N[C@@H](CO)C(=O)N[C@@H](C)C(=O)N[C@@H](C)C(N)=O)NC(=O)[C@H](CC2CCC2)NC(=O)[C@H](CC(C)C)NC(=O)[C@H](CCC(N)=O)NC(=O)[C@H](Cc2c[nH]c3ccccc23)NC(=O)[C@H](Cc2ccc(O)cc2)NC(=O)[C@H](CCC(=O)O)NC1=O [MP-198, ATSP-7041 (T2H)] (Ac-LHF[R8]EYWQL[Cba][S5]SAA-NH2; staple 4-11) | > 50 µM | 2.825% | -3.86% | 25 µM (≈ 45.6 µg/mL) | 209 A^2 | 2.81 |  |  |  |  |  |  |  |  | 
CC(=O)N[C@@H](CC(C)C)C(=O)N[C@H](C(=O)N[C@@H](Cc1ccccc1)C(=O)N[C@]1(C)CCCCCCC=CCCC[C@@](C)(C(=O)N[C@@H](CO)C(=O)N[C@@H](C)C(=O)N[C@@H](C)C(N)=O)NC(=O)[C@H](CC2CCC2)NC(=O)[C@H](CC(C)C)NC(=O)[C@H](CCC(N)=O)NC(=O)[C@H](Cc2c[nH]c3ccccc23)NC(=O)[C@H](Cc2ccc(O)cc2)NC(=O)[C@H](Cc2c[nH]cn2)NC1=O)[C@@H](C)O [MP-199, ATSP-7041 (E5H)] (Ac-LTF[R8]HYWQL[Cba][S5]SAA-NH2; staple 4-11) | > 50 µM | 4.035% | 24.3% | 5 µM (≈ 8.98 µg/mL) | 201 A^2 | 3.25 |  |  |  |  |  |  |  |  | 
CC(=O)N[C@@H](CC(C)C)C(=O)N[C@H](C(=O)N[C@@H](Cc1ccccc1)C(=O)N[C@]1(C)CCCCCCC=CCCC[C@@](C)(C(=O)N[C@@H](Cc2c[nH]cn2)C(=O)N[C@@H](C)C(=O)N[C@@H](C)C(N)=O)NC(=O)[C@H](CC2CCC2)NC(=O)[C@H](CC(C)C)NC(=O)[C@H](CCC(N)=O)NC(=O)[C@H](Cc2c[nH]c3ccccc23)NC(=O)[C@H](Cc2ccc(O)cc2)NC(=O)[C@H](CCC(=O)O)NC1=O)[C@@H](C)O [MP-201, ATSP-7041 (S12H)] (Ac-LTF[R8]EYWQL[Cba][S5]HAA-NH2; staple 4-11) | > 50 µM | 10.92% | 6.91% | 5 µM (≈ 9.19 µg/mL) | 218 A^2 | 2.64 |  |  |  |  |  |  |  |  | 
CC(=O)N[C@@H](CCCCN=[N+]=[N-])C(=O)NCCC(=O)N[C@@H](CC(C)C)C(=O)N[C@H](C(=O)N[C@@H](Cc1ccccc1)C(=O)N[C@]1(C)CCCCCCC=CCCC[C@@](C)(C(=O)N[C@@H](CO)C(=O)N[C@@H](C)C(=O)N[C@@H](C)C(N)=O)NC(=O)[C@H](CC2CCC2)NC(=O)[C@H](C)NC(=O)[C@H](C)NC(=O)[C@H](Cc2c[nH]c3ccccc23)NC(=O)[C@H](Cc2ccc(O)cc2)NC(=O)[C@H](C)NC1=O)[C@@H](C)O [MP-964, AZIDE-ATSP-7041 (E5A,Q9A)] (Ac-[Lys(N3)][βAla]LTF[R8]AYWAA[Cba][S5]SAA-NH2; staple 6-13) | > 50 µM | 6.293% | 4.09% |  | 204 A^2 | 3.77 |  |  |  | Poorly Behaved | > 50 µM | 2.881% | P.B. |  | 
CC(=O)N[C@@H](C)C(=O)N[C@@H](C)C(=O)N[C@@H](Cc1ccccc1)C(=O)N[C@]1(C)CCCCCCC=CCCC[C@@](C)(C(=O)N[C@@H](CO)C(=O)N[C@@H](C)C(=O)N[C@@H](C)C(N)=O)NC(=O)[C@H](CC2CCC2)NC(=O)[C@H](C)NC(=O)[C@H](C)NC(=O)[C@H](Cc2c[nH]c3ccccc23)NC(=O)[C@H](Cc2ccc(O)cc2)NC(=O)[C@H](CCC(=O)O)NC1=O [MP-1207] (Ac-AAF[R8]EYWAA[Cba][S5]SAA-NH2; staple 4-11) |  |  |  | 171 µM (≈ 276 µg/mL) | 224 A^2 | 2.91 |  | > 50 µM |  |  |  |  |  |  | 
CC(=O)N[C@@H](CC(C)C)C(=O)N[C@H](C(=O)N[C@@H](Cc1ccccc1)C(=O)NC(C)(C)C(=O)N[C@@H](CCC(=O)O)C(=O)N[C@@H](Cc1ccc(O)cc1)C(=O)N[C@@H](Cc1c[nH]c2ccccc12)C(=O)N[C@@H](CCC(N)=O)C(=O)N[C@@H](CC(C)C)C(=O)N[C@@H](CC1CCC1)C(=O)NC(C)(C)C(=O)N[C@@H](CO)C(=O)N[C@@H](C)C(=O)N[C@@H](C)C(N)=O)[C@@H](C)O [MP-7189] |  |  |  | 24 µM (≈ 40 µg/mL) | 199 A^2 | 2.12 |  | > 50 µM |  |  |  |  |  |  | 
CC(=O)N[C@@H](CCCCN=[N+]=[N-])C(=O)NCCC(=O)N[C@@H](CC(C)C)C(=O)N[C@H](C(=O)N[C@@H](Cc1ccccc1)C(=O)N[C@]1(C)CCCCCCC=CCCC[C@@](C)(C(=O)N[C@@H](C)C(=O)N[C@@H](C)C(=O)N[C@@H](C)C(N)=O)NC(=O)[C@H](CC2CCC2)NC(=O)[C@H](CCC(N)=O)NC(=O)[C@H](C)NC(=O)[C@H](Cc2c[nH]c3ccccc23)NC(=O)[C@H](Cc2ccc(O)cc2)NC(=O)[C@H](CCC(=O)O)NC1=O)[C@@H](C)O [MP-8956, AZIDE-ATSP-7041 (S12A)] (Ac-[Lys(N3)][βAla]LTF[R8]EYWAQ[Cba][S5]AAA-NH2; staple 6-13) | > 50 µM | 18.05% |  | 108 µM (≈ 211 µg/mL) | 217 A^2 |  |  |  |  |  | > 50 µM | 3.25% |  | 108 µM (≈ 211 µg/mL) | 0.411 µM
